# Data: US4420639A, “Aromatic compounds” (Beecham Group Limited, priority 1973, dated 1983)
# What was measured:
# [1] = system: pyresis induced by Shigella endotoxin; assay: Anti-pyretic Effect in Rabbits; format: in vivo, rabbit; conditions: doses down to 100 mg/kg p.o.; intravenous Shigella endotoxin
# From the text: g. Anti-pyretic Effect in Rabbits.
# [2] = system: gastric erosions or ulceration; assay: Ulcerogenic Activity in Rats; format: in vivo, rat; conditions: 250 mg/kg p.o. or 500 mg/kg p.o.
# From the text: m. Ulcerogenic Activity in Rats.
# [3] = system: Adrenal/Pitutary Axis; assay: Interactions with the Adrenal/Pitutary Axis; format: in vivo; conditions: five days at 140 mg/kg p.o./day; response to ACTH or ether stress
# From the text: h. Interactions with the Adrenal/Pitutary Axis.
# [4] = system: stomach / gastro-intestinal tract; assay: Gastro-intestinal irritancy at or near the therapeutic dose (general statement); format: in vivo
# [5] = system: Adjuvant arthritis; assay: Adjurant Arthritis in Rats; format: in vivo, rat; conditions: daily administration of 60 mg/kg p.o.
# Procedure: d. Adjurant Arthritis in Rats.
# Adjuvant arthritis is reduced in rats by the daily administration of doses of 60 mg/kg p.o.
# [6] = system: Carrageenin Induced Oedema; assay: Carrageenin Induced Oedema in Rats; format: in vivo, rat; conditions: 5, 10, 35 and 70 mg/kg p.o.
# From the text: a. Carrageenin Induced Oedema in Rats.
# [7] = system: Cotton Pellet Induced Granuloma; assay: Cotton Pellet Induced Granuloma in Rats; format: in vivo, rat; conditions: 50 mg/kg p.o. dosed from day 0 to 5 days
# Procedure: c. Cotton Pellet Induced Granuloma in Rats. Consistent activity (reducing induced granuloma by more than 30%) has been observed at 50 mg/kg p.o. dosed from day 0 to 5 days.
# [8] = system: cultured mouse peritoneal macrophages; assay: Macrophage Plasmongen Activator Release test; format: cell-based; conditions: 1 mg/ml
# [9] = system: pyloric ligated rat; assay: Gastric Damage in Pyloric Ligated Rats; format: in vivo; conditions: up to 200 mg/kg intra-duadenally
# From the text: l. Gastric Damage in Pyloric Ligated Rats.
# [10] = system: ovariectomised rats, uterine weight; assay: Oestrogenic Test in Rats (uterine weight); format: in vivo, rat; conditions: 200 mg/kg p.o. and 600 mg/kg p.o. for 4 days
# From the text: i. Oestrogenic Test in Rats.
# [11] = system: oestrogenicity; assay: Oestrogenic effects (general statement); format: in vivo; conditions: at the therapeutic dose
# [12] = system: uterus / endometrium (Clauberg test); assay: Gestagenic Activity in Rabbits (Clauberg test); format: in vivo, rabbit; conditions: 200 mg/kg p.o. for 4 days
# From the text: k. Gestagenic Activity in Rabbits.
smiles,measurement,setting,value
COc1ccc2cc(CCC(C)=O)ccc2c1 [4-(6'-methoxy-2'-naphthyl)butan-2-one],reduction of pyresis,[1],reduced pyresis
same,gastric erosions at longer contact times,[2]; longer contact times than 4 hours,did lead in some cases to some degree of erosions
same,gastric erosions or ulceration,"[2]; starved 18 hours, examined 1 or 4 hours after dosing",did not give rise to gastric erosions or ulceration
same,interference with release of corticosteroids from the adrenal gland,[3],does not interfere with release of corticosteroids
same,irritation of the stomach / gastric-irritant effects,[4],not causing either oestrogenic effects or pronounced gastric-irritant effects
same,reduction of adjuvant arthritis,[5],reduced
same,reduction in induced oedema volume,[6],significant reduction in induced oedema volume
same,"changes in body weight or in the weight of the spleen, thymus, kidney, liver or adrenal glands",[7],not accompanied by marked changes
same,reduction of induced granuloma,[7],more than 30%
same,inhibition of the release of plasmogen activator,[8],slight inhibition
same,overt gastric damage,[9],nor did overt gastric damage result
same,systemically mediated effect on the volume of gastric secretion,[9],have not been found to have a systemically mediated effect on the volume of gastric secretion
same,increase in uterine weight,[10],did not result in any increase in uterine weight
same,oestrogenic effects,[11],not causing either oestrogenic effects
same,uterine hypertrophy or progestational changes in the endometrium,[12],did not result in uterine hypertrophy or progestational changes in the endometrium
